# Where “and” joins values, the source holds several entries; their conditions need not be identical. Identical values can stand only once.
# Key:
# T8 SCI rats = test: Respiratory function by head-out plethysmograph in conscious rats after T8 contusion SCI; type: in vivo, rat
# Procedure: Female Sprague-Dawley rats (250–280 g and 360–390 g; Taconic, Germantown, N.Y.) were anesthetized with 4% chloral hydrate (360 mg/kg, i.p.). An incomplete spinal courd contusion injury was produced at T8 with a weight drop device (10 g×2.5 cm) as previously described (Wrathall et al., 1985). After SCI, manual expression of bladders was performed twice daily until a reflex bladder was established. Animal care also included housing the rats in pairs to reduce isolation-induced stress, maintaining ambient temperature at 22–25° C., and using highly absorbent bedding. No prophylactic antibiotics were given.
# (§1) Experiments were conducted in unanesthetized, awake, spontaneously breathing rats at 24 hours prior to SCI, at 24 hours p.i. and weekly afterwards at 1,2,3, and 4 weeks p.i. (1) Acclimatization of the Animals. […] Animals were placed in the body cylinder of the plethysmograph (FIG. 1a) for 60 minutes per day for at least 5 days. […] (2) Non-Invasive Measurements of Respiratory Rate, Tidal Volume and Minute Ventilation. Non-invasive measurements of respiratory function in conscious rats were performed with a restrained head-out plethysmograph specially designed for rodents (BUXCO Electronics, Inc., Sharon, Conn.) (FIG. 1a). The plethymograph apparatus has a neck seal that prevents leakage of air from between the animal's neck and the plethymograph opening. Displacement of the thoracic wall produced by the animal's respiratory movements causes changes in the cylinder pressure, which results in air flowing across a pneumotachograph located on the wall of the cylinder. The pressure drop across the pneumotachograph is measured with a pressure transducer and is proportional to the flow. This signal is amplified and integrated into volume. From measurements of volume and flow, a computer and appropriate software provides respiratory parameters, such as respiratory rate (f), tidal volume (Vt), minute ventilation (Ve), peak inspiratory flow, peak expiratory flow, inspiratory time (Ti), expiratory time (Te), and accumulated volume. An additional opening on the wall of the box allows volume calibration by injecting and removing air from the box with a calibrated syringe.
# (§2) The noise level in the laboratory was kept to a minimum in order not to startle the animals. Further, the animals were visually isolated from the investigators by means of a chamber made of an opaque material that surrounded and covered the front-end of the body plethysmograph (FIG. 1b). Baseline recordings lasted for 4 minutes. (3) Measurement of Ventilatory Response to Carbon Dioxide. For measurement of the ventilatory response to CO2, animals were exposed to air containing 7% CO2. The animals breathed from a funnel fixed in the front wall of a chamber made of an opaque material (FIG. 1b). The animals were exposed to the gas mixture containing 7% CO2 (mixed with 60% O2 and 33% N2) for 5 minutes with recording of respiratory activity for another 2 minutes (a total recording duration of 7 minutes).
# (§3) The 5HT1A receptor antagonist, p-MPPI (RBI, Natick, Mass.) was also dissolved in 0.9% saline and given i.p. in a dose of 3 mg/kg (pH 7.4 and final volume of 0.5 ml). […] Vehicle solution (VEH) was 0.9% saline and also injected at i.p. (pH 7.4; volume: 0.5 ml/rat).
# Baseline respiratory function was measured under room air ventilation and after the animal was stabilized inside a boy cylinder (FIGS. 1a and b) for 30 minutes at each time point prior to SCI and after injury. Immediately following the evaluation of baseline respiration, the animals were let to breathe air containing 7% CO2 for 7 minutes to monitor their ventilatory response to CO2 stimulus (Teng et al., 1998a and 1999).
# normal conscious rats = test: Respiratory function by head-out plethysmograph in normal conscious rats; type: in vivo, rat
# Procedure: as §1, §2, §3
# [1] = rats; cited from earlier work
# child with apneusis = settings: buspirone orally 8 mg/day; cited from earlier work
# SOD1 mice = test: Respiratory function (tidal volume, respiratory rate) in SOD1 mice, model of familial ALS; type: in vivo, mouse
# Procedure: SOD1 mice are mutant mice which provide an animal model for an inherited form of ALS which is more commonly referred to as familial ALS. […] These parameters of respiratory function were subsequently reevaluated 2 minutes after drug treatment.
# mdx mutant mice = settings: clenbuterol orally 1.0–1.5 mg/kg body weight/day, one year, cited from earlier work
# [2] = 24 hours p.i., 8-OH-DPAT 250 μg/kg i.p., time-course study, n=3
# [3] = 24 hours post SCI, pre-treated with p-MPPI 3 mg/kg i.p. 20 min before, 7% CO2 at 16′ & 17′ after 8-OH-DPAT
# [4] = 24 hours post SCI, pre-treated with p-MPPI 3 mg/kg i.p. 20 min before, baseline, 3 & 4 min post 8-OH-DPAT
# [5] = 24 hours post SCI, pre-treated with p-MPPI 3 mg/kg i.p. 20 min before, baseline, 9 & 10 min post 8-OH-DPAT
# [6] = 24 h p.i., 7% CO2 at 24 min after 8-OH-DPAT 250 μg/kg i.p.
# [7] = 24 h p.i., baseline (room air), 3 & 4 min post 8-OH-DPAT 250 μg/kg i.p.
# [8] = 24 h p.i., baseline (room air), 21 & 22 min post 8-OH-DPAT 250 μg/kg i.p.
# [9] = 7 d p.i., 7% CO2 at 31′ & 32′ post 8-OH-DPAT 250 μg/kg i.p.
# [10] = 7 d p.i., baseline (room air), 3 & 4 min post 8-OH-DPAT 250 μg/kg i.p.
# [11] = 7 d p.i., baseline (room air), 21 & 22 min post 8-OH-DPAT 250 μg/kg i.p.
# [12] = 7% CO2 at 31′ & 32′ after 8-OH-DPAT 250 μg/kg i.p.
# [13] = baseline (room air), 3 & 4 min post 8-OH-DPAT 250 μg/kg i.p.
# [14] = baseline (room air), 11 & 12 min post 8-OH-DPAT 250 μg/kg i.p.
# [15] = baseline (room air), 21 & 22 min post 8-OH-DPAT 250 μg/kg i.p.
# [16] = 24 hours after SCI, 7% CO2 at 15 & 16 min after buspirone 1.5 mg/kg i.p.
# [17] = 24 hours after SCI, baseline (room air), 3 & 4 min post buspirone 1.5 mg/kg i.p.
# [18] = 24 hours after SCI, baseline (room air), 8 & 9 min post buspirone 1.5 mg/kg i.p.
# [19] = 24 hours p.i., buspirone 1.5 mg/kg i.p.
# [20] = buspirone 3.0 mg/kg i.p. or s.c. (FIGS. 6 and 7)
smiles,measurement,setting,value
"CCCN(CCC)C1CCc2cccc(O)c2C1 (stereo not drawn) [8-OH-DPAT, 8-hydroxy-2-(di-n-propylamino)tetralin]",effect on SCI-induced abnormal respiratory pattern,"T8 SCI rats; 24 hours after SCI, 8-OH-DPAT 250 μg/kg i.p.",promptly and successfully reversed the injury-triggered respiratory abnormalities
same,duration of initial rise of f above p.i. levels,"T8 SCI rats; 24 hours p.i., 8-OH-DPAT 250 μg/kg i.p.",about 20 minutes
same,time for which a single dose normalized ventilatory response to breathing 7% CO2,T8 SCI rats; [2],more than 2 hours
same,time for which improvement of baseline Ve (room air) was significant,T8 SCI rats; [2],1 h
same,Te (expiratory time),T8 SCI rats; [3],0.32 ± 0.05
same,Ti (inspiratory time),T8 SCI rats; [3],0.19 ± 0.02
same,Tv (tidal volume),T8 SCI rats; [3],1.15 ± 0.21↓ ml
same,Ve (minute ventilation),T8 SCI rats; [3],143.1 ± 28.1↓ ml/min
same,f (respiratory rate),T8 SCI rats; [3],126.8 ± 14.4 breaths/min
same,Te (expiratory time),T8 SCI rats; [4],0.32 ± 0.08↓
same,Ti (inspiratory time),T8 SCI rats; [4],0.32 ± 0.02
same,Tv (tidal volume),T8 SCI rats; [4],0.85 ± 0.14↓ ml
same,Ve (minute ventilation),T8 SCI rats; [4],82.5 ± 10.9↓ ml/min
same,f (respiratory rate),T8 SCI rats; [4],99.4 ± 9.1↑ breaths/min
same,Te (expiratory time),T8 SCI rats; [5],0.28 ± 0.02↓
same,Ti (inspiratory time),T8 SCI rats; [5],0.31 ± 0.02
same,Tv (tidal volume),T8 SCI rats; [5],0.82 ± 0.11↓ ml
same,Ve (minute ventilation),T8 SCI rats; [5],88.3 ± 13.3↓ ml/min
same,f (respiratory rate),T8 SCI rats; [5],107.5 ± 1.9↑ breaths/min
same,Ti (inspiratory time),T8 SCI rats; [6],0.17 ± 0.01
same,Tv (tidal volume),T8 SCI rats; [6],1.52 ± 0.08 mL
same,Ve (minute ventilation),T8 SCI rats; [6],267.5 ± 21.8 mL/min
same,f (respiratory rate),T8 SCI rats; [6],175.9 ± 9.7 breaths/min
same,Te (expiratory time),T8 SCI rats; [7],0.25 ± 0.02↓
same,Ti (inspiratory time),T8 SCI rats; [7],0.19 ± 0.01
same,Tv (tidal volume),T8 SCI rats; [7],0.96 ± 0.08 mL
same,Ve (minute ventilation),T8 SCI rats; [7],149.9 ± 15.6↑ ml/min
same,f (respiratory rate),T8 SCI rats; [7],155.5 ± 8.7↑ breaths/min
same,Te (expiratory time),T8 SCI rats; [8],0.47 ± 0.02
same,Ti (inspiratory time),T8 SCI rats; [8],0.18 ± 0.01
same,Tv (tidal volume),T8 SCI rats; [8],0.80 ± 0.06 mL
same,Ve (minute ventilation),T8 SCI rats; [8],81.3 ± 10.9 mL/min
same,f (respiratory rate),T8 SCI rats; [8],98.5±3.7 breaths/min and 98.5 ± 5.18 breaths/min
same,effect on SCI-induced abnormal respiratory pattern,"T8 SCI rats; 7 days p.i., 8-OH-DPAT 250 μg/kg i.p.",restored this abnormal pattern of breathing to normal
same,Te (expiratory time),T8 SCI rats; [9],0.17 ± 0.01
same,Ti (inspiratory time),T8 SCI rats; [9],0.16 ± 0.01
same,Tv (tidal volume),T8 SCI rats; [9],1.79 ± 0.35 mL
same,Ve (minute ventilation),T8 SCI rats; [9],327.2 ± 53.7↑ ml/min
same,f (respiratory rate),T8 SCI rats; [9],184.6 ± 6.6↑ breaths/min
same,Te (expiratory time),T8 SCI rats; [10],0.26 ± 0.03↓
same,Ti (inspiratory time),T8 SCI rats; [10],0.16 ± 0.01
same,Tv (tidal volume),T8 SCI rats; [10],1.11 ± 0.05 mL
same,Ve (minute ventilation),T8 SCI rats; [10],172.1 ± 17.1↑ ml/min
same,f (respiratory rate),T8 SCI rats; [10],155.2 ± 8.9↑ breaths/min
same,Te (expiratory time),T8 SCI rats; [11],0.32 ± 0.02↓
same,Ti (inspiratory time),T8 SCI rats; [11],0.15 ± 0.01
same,Tv (tidal volume),T8 SCI rats; [11],0.79 ± 0.04 mL
same,Ve (minute ventilation),T8 SCI rats; [11],103.0 ± 2.1↑ ml/min
same,f (respiratory rate),T8 SCI rats; [11],131.7 ± 7.7↑ breaths/min
same,Te (expiratory time),normal conscious rats; [12],0.23 ± 0.03
same,Ti (inspiratory time),normal conscious rats; [12],0.19 ± 0.01
same,Tv (tidal volume),normal conscious rats; [12],1.50 ± 0.14 mL
same,Ve (minute ventilation),normal conscious rats; [12],239.3 ± 48.9 mL/min
same,f (respiratory rate),normal conscious rats; [12],155.6 ± 18.5 breaths/min
same,duration of increase in baseline Vt,normal conscious rats; 8-OH-DPAT 250 μg/kg i.p.,4 min
same,duration of stimulating effect on f,"normal conscious rats; 8-OH-DPAT 250 μg/kg i.p., to last minute of observation",≥ 23 min
same,Te (expiratory time),normal conscious rats; [13],0.25 ± 0.09↓
same,Ti (inspiratory time),normal conscious rats; [13],0.19 ± 0.04
same,Tv (tidal volume),normal conscious rats; [13],1.14 ± 0.08↑ ml
same,Ve (minute ventilation),normal conscious rats; [13],198.6 ± 32.9↑ ml/min
same,f (respiratory rate),normal conscious rats; [13],177.5 ± 36.2↑ breaths/min
same,Te (expiratory time),normal conscious rats; [14],0.30 ± 0.07↓
same,Ti (inspiratory time),normal conscious rats; [14],0.16 ± 0.02
same,Tv (tidal volume),normal conscious rats; [14],0.92 ± 0.05 mL
same,Ve (minute ventilation),normal conscious rats; [14],138.6 ± 27.6↑ ml/min
same,f (respiratory rate),normal conscious rats; [14],149.8 ± 26.5↑ breaths/min
same,Te (expiratory time),normal conscious rats; [15],0.41 ± 0.08↓
same,Ti (inspiratory time),normal conscious rats; [15],0.18 ± 0.02
same,Tv (tidal volume),normal conscious rats; [15],0.84 ± 0.02 mL
same,Ve (minute ventilation),normal conscious rats; [15],112.9 ± 15.2↑ ml/min
same,f (respiratory rate),normal conscious rats; [15],134.4 ± 21.2↑ breaths/min
same,ventilatory response to 7% CO2 challenge,normal conscious rats; starting at 24 minutes after 8-OH-DPAT,did not significantly alter
same,systematic half life (T1/2),[1],~50 min
O=C1CC2(CCCC2)CC(=O)N1CCCCN1CCN(c2ncccn2)CC1 [buspirone],Te (expiratory time),T8 SCI rats; [16],0.21 ± 0.03
same,Ti (inspiratory time),T8 SCI rats; [16],0.17 ± 0.01
same,Tv (tidal volume),T8 SCI rats; [16],1.46 ± 0.14 mL
same,Ve (minute ventilation),T8 SCI rats; [16],240.9 ± 44.8 mL/min
same,Te (expiratory time),T8 SCI rats; [17],0.27 ± 0.03↑
same,Ti (inspiratory time),T8 SCI rats; [17],0.19 ± 0.01
same,Tv (tidal volume),T8 SCI rats; [17],1.17 ± 0.13 mL
same,Ve (minute ventilation),T8 SCI rats; [17],171.3 ± 30.1 mL/min
same,Te (expiratory time),T8 SCI rats; [18],0.40 ± 0.05
same,Ti (inspiratory time),T8 SCI rats; [18],0.20 ± 0.03
same,Ve (minute ventilation),T8 SCI rats; [18],101.8 ± 11.4 mL/min
same,SCI reduced Vt values after treatment,T8 SCI rats; [19],levels indiscenible from pre-injury readings
same,duration of effect on Vt (printed Bt),T8 SCI rats; [19],up to 9 minutes
same,effect on abnormal respiratory function resulting from T8 SCI,T8 SCI rats; [19],reversed the abnormal respiratory function
same,apneusis,child with apneusis,reverses apneusis
same,respiratory frequency,SOD1 mice; [20],reduces
same,tidal volume,SOD1 mice; [20],significantly increases
same,"respiratory function (tidal volume, respiratory rate)","SOD1 mice; buspirone 3.0 mg/kg subcutaneous, 2 minutes after treatment",significantly improved
CC(C)(C)NCC(O)c1cc(Cl)c(N)c(Cl)c1 (stereo not drawn) [clenbuterol],increase in myosin concentration of mdx diaphram (DIA),mdx mutant mice; mdx mice,22%
same,soleus (SOL) weight and SOL muscle weight to body weight ratio,mdx mutant mice; normal control and mdx mice,significantly increase

# Reference: patent US7071194B2, “Method for improving respiratory function and inhibiting muscular degeneration” (priority 2000, dated 2006)
